Test results: article PMC3235747, “Bioassay-Guided Isolation of Cytotoxic Cycloartane Triterpenoid Glycosides from the Traditionally Used Medicinal Plant Leea indica” (Evidence-based Complementary and Alternative Medicine : eCAM, 2011)
In brackets after ≈: the same amount, converted by molar mass. Several values for one entry are separate records, joined by “and”; a condition that tells them apart may be missing. Equal values may be shown once. Read-outs that look alike come from different tables or passages of the source.

What was measured:
Assay type in all cases: cell-based, human
[1] = tested on: Ca Ski cervical cancer cells; test: MTT assay, 72 h exposure, Ca Ski cells; conditions: for decrease in cell viability: Ca Ski cells, 3.125–100 μg/mL
Protocol: (§1) The human cervical epidermoid carcinoma cell line (Ca Ski, ATCC number CRL-1550) and human fibroblast cell line (MRC 5, ATCC number CCL-171) were purchased from the American Type Culture Collection (ATCC, USA). Ca Ski cells were maintained in RPMI 1640 Medium (Sigma) and MRC 5 cells in EMEM (Eagle Minimum Essential Medium) (Sigma). The media were supplemented with 10% (v/v) heat-inactivated fetal bovine serum (PAA Lab, Austria), 100 μg/mL streptomycin and 100 unit/mL penicillin (PAA Lab, Austria), and 50 μg/mL amphotericin B (PAA Lab, Austria). The media were filter-sterilized using a 0.22 μm filter membrane (Minisart, Sartorius stedim). The cells were cultured in 5% CO2 incubator at 37°C in a humidified atmosphere. MTT assay was modified from Mossmann and used to evaluate the cytotoxic effects of each fraction and compounds. MTT assay is widely used to assess the viability and/or the metabolic state of the cells based on mitochondrial respiratory activity. A total of 5 × 10^3 cells were seeded into each well of 96-well plates and allowed to adhere for 24 h. After 24 h, the cells were treated with the fractions or compounds in the final concentrations ranging from 3.125 to 100 μg/mL. Each concentration was performed in triplicate well. Control cells were treated with vehicle DMSO to get the final concentration of 0.5% v/v. The cells were then incubated for 72 h. After 72 h exposure period, MTT (5 mg/mL) was added and further incubated for 4 h at 37°C. The medium was then aspirated and the crystals formed were dissolved in 150 μL DMSO. The absorbance was measured at 570 nm against the reference wavelength of 650 nm. The percentage of viability was calculated based on the formula: Viability (%) = (absorbance of treated cells/absorbance of control cells) × 100%. The IC50 (concentration that reduces cell viability to 50%) was derived from the dose-response curves.

[2] = MTT assay, 72 h exposure, Ca Ski cells; conditions: human
Protocol: as §1

MRC 5 normal cells = test: MTT assay, 72 h exposure, MRC 5 normal cells; conditions: for fold higher IC50 against MRC 5 compared to CPT: MRC 5, relative to camptothecin; for IC50: Homo sapiens, MRC5, 72 h
Protocol: as §1, with “curves. MRC 5 cell line was used as a normal cell model for the calculation of selectivity index (SI). SI value was calculated by dividing the IC50 value of the MRC 5 cell line with the IC50 value of Ca Ski cell line.” for “curves.”

Ca Ski cells [3] = test: Cell cycle analysis by PI staining and flow cytometry; conditions: 60 μM
Protocol: The cell cycle distribution was assessed using propidium iodide (PI) staining. Ca Ski cells were seeded in 60 mm culture dishes (1 × 10^6 cells) and left 24 h for attachment. The cells were then treated without or with 60 μM MAA for 12–72 h. After the designated treatment period, both adherent and floating cells were harvested and washed twice with PBS. Cell pellets were resuspended in 100 μL of PBS and fixed with absolute ethanol and stored at −20°C for 24 h. Fixed cells were washed twice with PBS, and the cell pellets were incubated in a buffer containing 50 μg/mL PI, 0.1% sodium citrate, 0.1% Triton-X-100, and 100 μg/mL RNase A for 45 min in the dark at room temperature. The percentage of cells in the sub-G1, G1, S, and G2/M-phases of the cell cycle was then analyzed using a FACS Calibur flow cytometer (Beckton Dickinson). Data were acquired and analyzed using Cell Quest software (Becton Dickinson).

[4] = tested on: proliferating cell nuclear antigen (PCNA) expression in Ca Ski cells; test: Q-PCR analysis of PCNA expression; conditions: 20–100 μM for 24 h; 60 μM for 0–24 h; relative to untreated control, normalized with GAPDH
Protocol: A total of 1 × 10^6 Ca Ski cells were seeded into 60 mm culture dishes and incubated for 24 h for attachment. Cells were then treated without or with 20-100 μM of MAA for 24 h. For time-course study, cells were treated with 60 μM MAA for 0, 3, 6, 12, and 24 h. After specific treatment period, cells were harvested and total RNA was isolated using the RNAqueous-4PCR kit (Applied Biosystem) according to the manufacturer's directions. The RNA concentration was determined using spectrophotometry. The gene expression of PCNA was assessed by one-step SYBR Green relative real-time PCR (Rotor-Gene System, Qiagen) and normalized to GAPDH reference control amplifications. The primer sequences for PCNA and GAPDH were forward [NT], reverse [NT] and forward [NT], reverse [NT], respectively. The PCR amplification reactions were carried out in a total volume of 25 μL for 30 cycles of 45 seconds at 95°C, 45 seconds at 56°C, and 120 seconds at 72°C. The mean fluorescence threshold value (CT) of each sample was obtained according to the manufacturer's guidelines and used to determine ΔCT values where by ΔCT = CT target gene (PCNA) - CT reference gene (GAPDH).

Ca Ski cells [5] = test: MTT recovery assay (72 h exposure then 72 h recovery)
Protocol: In order to determine whether the cytotoxicity is cytostatic or cytocidal, a recovery assay was conducted whereby after the 72 h incubation (exposure period), the medium containing the compound was removed, washed with medium, and replaced with medium alone for a recovery period of 72 h followed by addition of MTT and measurement as described earlier. A sample is showing cytostatic effect when the IC50 in the recovery assay was higher than that of the exposure assay. Whereas for cytocidal effect, the IC50 obtained in the recovery assay is similar to that shown by the exposure assay.

Ca Ski cells [6] = test: Trypan blue exclusion (TBE) assay, viable cell count; conditions: 60 μM
Protocol: Ca Ski cells were cultured at a density of 1 × 10^6 cells/mL in 60 mm culture dishes. After 24 h of attachment, the cells were treated without or with 60 μM of MAA for different time periods. After 6–72 h, the cells were harvested, washed with medium, and the cell pellets were resuspended in medium. After incubation in 0.4% trypan blue for 5 min, viable cells were counted using a hemocytometer. At the indicated time point straight before the cells were harvested, the cells were visualized under an inverted phase-contrast microscope (Motic) to observe the cell morphological changes upon treatment, and photographs were taken.

[7] = Homo sapiens, Ca-Ski, 72 h, MTT, 72 h exposure

Row | Structure (SMILES) | decrease in cell viability ([1]; 72 h) | IC50 ([1]; MTT, 72 h exposure) [µM] | IC50 for Ca Ski cells ([1]; MTT, 72 h exposure) [µg/mL] | selectivity ratio at 72 h [2] | fold higher IC50 against MRC 5 compared to CPT (MRC 5 normal cells) | IC50 on MRC 5 (MRC 5 normal cells; MTT, 72 h exposure) [µg/mL] | IC50 [1, 7] | IC50 (MRC 5 normal cells; MTT, 72 h exposure) [µg/mL] | proportion of S-phase and G2/M-phase cells versus untreated cells (Ca Ski cells [3]; 12 and 24 h) | increase of hypodiploid (sub-G1) cells (Ca Ski cells [3]; after 72 h) | selectivity ratio at 72 h ([2]; Ca Ski cervical carcinoma cells vs MRC 5 fibroblast cells, Ca Ski vs MRC 5, read-out: selectivity index (IC50 MRC 5 / IC50 Ca Ski), times more cytotoxic to Ca Ski cells compared to MRC5) | expression of PCNA [4] | IC50 in the recovery assay compared with the exposure assay (Ca Ski cells [5]) | effect on cell proliferation (viable cell count) (Ca Ski cells [6]; 6 h) | effect on cell proliferation (viable cell count) (Ca Ski cells [6]; 12 h and 24 h)
1 | CC(C)=CCCC(C)C1CCC2(C)C3CCC4C(C)(C(=O)O)C(OC5OCC(O)C(O)C5O)CC(O)C45CC35CCC12C [MAX, 1α, 3β-dihydroxy-cycloart-24-ene-28-oic acid 3-O-[β-D-xylopyranoside]] | 6–90% | 33.3 | 20.13 ± 0.21 | ~4 | ~17 fold | 79.25 ± 0.66 (≈ 131 µM) | – | – | – | – | – | – | – | – | –
2 | CC[C@@]1(O)C(=O)OCc2c1cc1n(c2=O)Cc2cc3ccccc3nc2-1 [camptothecin, reference compound] | – | – | – | – | – | – | 2.51 ± 0.33 µg/mL | 4.74 ± 0.33 (≈ 13.6 µM) | – | – | – | – | – | – | –
3 | CC(C)=CCCC(C)C1CCC2(C)C3CCC4C(C)(C(=O)O)C(OC5OCC(O)C(O)C5O)CC(O)C45CC35CCC12C [MAA, 1α, 3β-dihydroxy-cycloart-24-ene-28-oic acid 3-O-[α-L-arabinopyranoside]] | 20–95% | – | – | – | approximately 20 fold | – | 19.2 µM and 11.6 µg/mL | 94.32 ± 0.75 (≈ 156 µM) | significantly higher | about 20 fold | ~8 | significantly decreased | almost the same to the exposure assay | modestly inhibited the cell proliferation | prominent antiproliferative effect
